Assay results as given in PMC3806745, “Selective Inhibition of Matrix Metalloproteinase-9 Attenuates Secondary Damage Resulting from Severe Traumatic Brain Injury” (PLoS ONE, 2013).
Read-outs that look alike come from different tables or passages of the source.

Tests used:
[1] = system: TBI mouse model (EM impactor CCI); assay: Brain lesion volume in cresyl violet-stained sections after TBI (stereology, WSI); assay type: in vivo; settings: TBI mice, 25 mg/kg i.p. for 7 days
Description: All animal procedures were performed under the compliance with protocol approval by the University of Missouri Animal Care and Use Committee, which is in accordance with the National Institutes of Health Guide for the Care and Use of Laboratory Animals. The TBI procedure employed an EM impactor for CCI and was conducted as previously described. A total of 86 mice were used in this study. Briefly, 8–10 week-old adult male C57BL/6J mice (The Jackson Laboratory, Bar Harbor, ME) weighing 20–25 g were anesthetized with 2.0% gaseous isoflurane in a nitrogen/oxygen mixture inside a sealed anesthesia chamber. Each mouse was then stably placed on a Kopf stereotaxic apparatus (David Kopf Instruments, Tujunga, CA). Body temperature was monitored with a rectal thermistor probe (TH-10Kmp, Cell MicroControls, Norfolk, VA), and maintained at a constant 37°C on a silicon heating pad (HS-3×2.5 Heater, Cell MicroControls, Norfolk, VA). Following a midline skin incision and removal of connective tissue under sterile conditions, a 5.0 mm diameter craniotomy was performed in the left parietotemporal skull using a pedal-operated high-speed micro-drill mounted on the stereotaxic arm. A 5.0-mm diameter bone disc was then removed to expose the left cortex, while keeping the dura mater intact. A MATLAB-controlled EM impactor (MyNeuroLab Stereotaxic Impactor, St. Louis, MO) with a 3.0-mm diameter tip was centered at 2.7 mm to the left of the midline suture and 3.0 mm rostral to lambda, at an angle of 15° with the vertical. Once the position was set, the EM impactor delivered a CCI with a velocity of 5.0 m/s and dwell time of 100 ms, at a depth of 2.5 mm. This operation produces a moderately severe contusion in the left parietotemporal cortex and the underlying hippocampus as marked by pronounced behavioral deficits, but virtually no mortality. Following impact, the original skull disc was placed back over the exposed cortex, and the incision was sutured. Each mouse was released from anesthesia and placed in an empty cage over a heating pad for recovery. All efforts were made to minimize animal suffering. For sham control mice used in the study, only the craniotomy was performed. […] Mice were observed daily for the duration of the study (7 or 30 days). For design of the 30-day long term study, animals in each group were double-blinded and randomly assigned into two different tissue process procedures after behavioral testing–mouse brains were either fixed and sectioned for histopathological evaluation, or freshly dissected and then frozen at −80°C for later analysis, reflecting the difference of the animal numbers mentioned in the legends of Figures 7 and 8.
At 7 or 30 days after TBI, mice were sacrificed and brains were processed for histochemical staining and assessment of brain lesion volumes using the stereology technique as described, [45]. Briefly, mice were sacrificed at appropriate experimental time points and transcardially perfused with 4% paraformaldehyde in 100 mM phosphate buffer (PB) and brains were dissected. […] Every 5th section was mounted on poly-L-lysine coated glass slides and stained with cresyl violet to quantify brain lesion volumes and examine neuronal cell death.
Systematic evaluation of a large number of histological specimens in an unbiased manner requires high-speed imaging tools for the supervised analysis of pathological assessment to reduce quantitative variations. […]

[2] = system: TBI mouse model (EM impactor CCI); assay: Microglial activation and astrogliosis, CD11b/GFAP immunofluorescence after TBI; assay type: in vivo; settings: TBI mice, SB-3CT treatment for 7 days; 7 days post-trauma
Description: (§1) All animal procedures were performed under the compliance with protocol approval by the University of Missouri Animal Care and Use Committee, which is in accordance with the National Institutes of Health Guide for the Care and Use of Laboratory Animals. The TBI procedure employed an EM impactor for CCI and was conducted as previously described. A total of 86 mice were used in this study. Briefly, 8–10 week-old adult male C57BL/6J mice (The Jackson Laboratory, Bar Harbor, ME) weighing 20–25 g were anesthetized with 2.0% gaseous isoflurane in a nitrogen/oxygen mixture inside a sealed anesthesia chamber. Each mouse was then stably placed on a Kopf stereotaxic apparatus (David Kopf Instruments, Tujunga, CA). Body temperature was monitored with a rectal thermistor probe (TH-10Kmp, Cell MicroControls, Norfolk, VA), and maintained at a constant 37°C on a silicon heating pad (HS-3×2.5 Heater, Cell MicroControls, Norfolk, VA). […]
(§2) Fluorescence immunohistochemistry was carried out as described, [16], [19]. For each brain analyzed, coronal sections were chosen near the center of the craniotomy (Bregma −1.50 mm) and adjacent to a section stained with cresyl violet for comparison. […]

[3] = system: TBI mouse model (EM impactor CCI); assay: Barnes maze after TBI; assay type: in vivo; settings: TBI mice, 25 mg/kg i.p. for 7 days
Description: as §1, with “VA). Following a midline skin incision and removal of connective tissue under sterile conditions, a 5.0 mm diameter craniotomy was performed in the left parietotemporal skull using a pedal-operated high-speed micro-drill mounted on the stereotaxic arm. A 5.0-mm diameter bone disc was then removed to expose the left cortex, while keeping the dura mater intact.” for “VA).”

[4] = Regional brain distribution of SB-3CT and p-OH SB-3CT after repeated i.p. SB-3CT; assay type: in vivo, mouse; settings: mice; for Conc, whole brain: 10 minutes after the last i.p. dose of SB-3CT (25 mg/kg at 0, 2, 24 h)
Description: (§3) Under anesthesia, terminal blood was collected in heparin tubes through the posterior vena cava at various time points after the last dose, and tubes were centrifuged to collect plasma. Whole brain samples were harvested after transcardiac perfusion with saline and immediately flash frozen in liquid nitrogen and stored at −80°C until analysis. […] At 10 minutes after the last dose, whole brain samples were rapidly dissected into different regions (cortex, striatum, hippocampus, cerebellum and brain stem), and immediately frozen in dry ice.
(§4) A 75-µL aliquot of plasma was mixed with 150 µL of internal standard in acetonitrile. The sample was centrifuged at 10,000×g for 10 minutes. Brain samples were weighed and homogenized for 5 minutes in one volume equivalent of cold acetonitrile, containing an internal standard, using a bullet blender (Next Advance, Inc., Averill Park, NY). For regional brain distribution, the striatum, hippocampus, cerebellum and brain stem samples were pooled from 3 different mice for analysis.
The homogenates were centrifuged twice at 20,000×g for 20 minutes at 4°C. […] Quantification was performed using peak area ratios relative to the internal standard and linear regression parameters were calculated from the calibration curve standards prepared in blank mouse plasma (and blank brain). The internal standard used in all of the analyses was N-(4-(4-((thiiran-2-ylmethyl)sulfonyl)phenoxy)phenyl)methanesulfonamide [43], which was analyzed by MRM using the transition 398→261. The chromatographic, MRM conditions, and method validation were the same as previously described [17].

[5] = target: MMP-9 (Mus musculus, UniProt P41245); assay: Gelatin zymography of cortical tissue after TBI; assay type: in vivo; settings: TBI mice, 25 mg/kg/day i.p. for 7 days, 7 days post-trauma, vs vehicle
MMP-9 (Mus musculus, UniProt P41245), sequence (P41245 108-730): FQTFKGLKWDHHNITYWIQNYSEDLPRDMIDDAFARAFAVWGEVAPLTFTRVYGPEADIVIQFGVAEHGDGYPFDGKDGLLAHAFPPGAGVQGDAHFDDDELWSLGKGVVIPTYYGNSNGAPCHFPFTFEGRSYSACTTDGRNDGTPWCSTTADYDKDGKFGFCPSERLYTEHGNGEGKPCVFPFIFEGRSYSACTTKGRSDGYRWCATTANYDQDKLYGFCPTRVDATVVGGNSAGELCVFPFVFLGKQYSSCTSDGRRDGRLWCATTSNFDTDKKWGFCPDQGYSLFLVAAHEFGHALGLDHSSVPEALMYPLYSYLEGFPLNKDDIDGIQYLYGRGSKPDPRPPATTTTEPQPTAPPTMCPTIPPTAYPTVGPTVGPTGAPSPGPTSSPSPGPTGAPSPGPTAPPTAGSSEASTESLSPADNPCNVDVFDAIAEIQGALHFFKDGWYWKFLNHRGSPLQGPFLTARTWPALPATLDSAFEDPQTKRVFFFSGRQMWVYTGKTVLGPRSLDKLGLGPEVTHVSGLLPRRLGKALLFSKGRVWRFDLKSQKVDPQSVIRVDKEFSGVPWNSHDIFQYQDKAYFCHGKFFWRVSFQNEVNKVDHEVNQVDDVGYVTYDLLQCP
Description: as §1
Gelatinase activity in brain homogenates was determined by gelatin zymography as described previously, [16]. […] Bound material was released from the beads using 10% DMSO in TBS, and samples were analyzed by electrophoresis in a 10% SDS-PAGE gel containing 0.1% gelatin under non-reducing conditions, followed by incubation overnight at 37°C in 50 mM Tris buffer, pH 8, with 5 mM CaCl2, 200 mM NaCl, and 0.02% Brij 35. […]

[6] = Plasma and brain levels and pharmacokinetics of SB-3CT and p-OH SB-3CT after repeated i.p. SB-3CT (UPLC/ESI-MRM); settings: mice
Description: as §3, §4
(§5) The homogenates were centrifuged twice at 20,000×g for 20 minutes at 4°C. […] Quantification was performed using peak area ratios relative to the internal standard and linear regression parameters were calculated from the calibration curve standards prepared in blank mouse plasma (and blank brain). The internal standard used in all of the analyses was N-(4-(4-((thiiran-2-ylmethyl)sulfonyl)phenoxy)phenyl)methanesulfonamide [43], which was analyzed by MRM using the transition 398→261.
(§6) Pharmacokinetic parameters were calculated as follows. The area under the mean concentration-time curve up to the last quantifiable sampling time (AUC 0–last) was calculated by the trapezoidal rule using the pharmacokinetic software PK Solutions (Version 2.0, Summit Research Services, Montrose, CO). The AUC-time curve from time zero to infinity (AUC 0–∞), representing systemic exposure of a therapeutic agent in the body, was calculated as AUC 0–last+(C last/k), where C last is the concentration at the last quantifiable sampling time and k is the elimination rate constant. Half-lives (t ½α and t ½β) were estimated from the linear segment of the initial or terminal portion of the concentration-time data by linear regression, where the slope of the line was the rate constant k and t ½ = ln 2/k.

[7] = system: TBI mouse model (EM impactor CCI); assay: Beam-walking test after TBI; assay type: in vivo; settings: TBI mice, 25 mg/kg i.p. for 7 days
[8] = system: TBI mouse model (EM impactor CCI); assay: Neurons with dendrites, NeuN/MAP2 immunohistochemistry after TBI; assay type: in vivo; settings: TBI mice, 25 mg/kg i.p. for 7 days; 7 days after TBI
Description: as §1, §2

[9] = mouse, in vivo, ip, 25 mg/kg
Description: as §3, §4, §5, §6

[10] = cited from earlier work
[11] = target: MMP-9; settings: cited from earlier work
[12] = 10 minutes after the last i.p. dose of SB-3CT
[13] = repeated 25 mg/kg i.p. SB-3CT (0, 2, 24 h), 10 min after last dose
[14] = repeated 25 mg/kg i.p. SB-3CT, 10 min after last dose
[15] = repeated 25 mg/kg i.p. SB-3CT, 20 min after last dose
[16] = repeated 25 mg/kg i.p. SB-3CT, 30 min after last dose
[17] = repeated 25 mg/kg i.p. SB-3CT, 60 min after last dose
[18] = repeated 25 mg/kg i.p. SB-3CT, 90 min after last dose
[19] = repeated 25 mg/kg i.p. SB-3CT, 120 min after last dose
[20] = repeated 25 mg/kg i.p. SB-3CT, 180 min after last dose

O=S(=O)(CC1CS1)c1ccc(Oc2ccccc2)cc1 (stereo not shown) [SB-3CT]
Reduction in brain damage (cortical lesion volume) vs vehicle ([1]; 7 days post-trauma): ~14%
Cortical lesion volume ([1]; 30 days post-trauma): 15.60±1.26 mm^3
Cortical lesion volume smaller than vehicle ([1]; 30 days post-trauma): approximately 24%
Hippocampal lesion volume ([1]; 30 days post-trauma): 4.91±0.40 mm^3
Hippocampal lesion volume smaller than vehicle ([1]; 30 days post-trauma): approximately 26%
Immunoreactivity of GFAP-stained astrocytes [2]: partially attenuated
Numbers of CD11b-positive microglial cells in lesioned cortex vs vehicle [2]: significantly reduced
Barnes maze latency AUC over 10 trials (memory acquisition) vs vehicle ([3]; 5-day task started 18 days post-trauma): ameliorated cognitive deficits
Barnes maze latency and error numbers vs vehicle ([3]; last two days of the trials (days 22 and 23 after TBI)): significantly attenuated
Conc, whole brain [4]: 3.7±0.5 pmole/mg tissue
Conc, brain stem [4, 12]: 2.8±0.8 pmole/mg tissue
Conc, cerebellum [4, 12]: 2.4±0.4 pmole/mg tissue
Conc, cortex [4, 12]: 2.7±0.8 pmole/mg tissue
Conc, hippocampus [4, 12]: 3.1±0.8 pmole/mg tissue
Conc, plasma [4, 12]: 6200 ± 100 nM
Conc, striatum [4, 12]: 3.5±1.1 pmole/mg tissue
Levels of proMMP-9 and active MMP-9 in lesioned cortex (gelatin zymography, densitometry) [5]: attenuated
Brain AUC 0–∞, equivalent ([6]; assuming a density of 1 g/mL, repeated 25 mg/kg i.p. SB-3CT): 87.8 µM·min
t ½α, brain ([6]; repeated 25 mg/kg i.p. SB-3CT): 8.7 min
t ½α, plasma ([6]; repeated 25 mg/kg i.p. SB-3CT): 6.6 min
Brain concentration [6, 13]: 3.7±0.5 pmole/mg tissue
Plasma concentration [6, 14]: 6200 ± 100 nM
Brain concentration [6, 15]: 1.6±0.3 pmole/mg tissue
Plasma concentration [6, 15]: 2900 ± 300 nM
Brain concentration [6, 16]: 0.99±0.09 pmole/mg tissue
Plasma concentration [6, 16]: 760 ± 260 nM
Brain concentration [6, 17]: 0.19±0.05 pmole/mg tissue
Plasma concentration [6, 17]: 550 ± 80 nM
Brain concentration [6, 18]: 0.16±0.08 pmole/mg tissue
Plasma concentration [6, 18]: 220 ± 130 nM
Brain concentration [6, 19]: 0.049±0.013 pmole/mg tissue
Plasma concentration [6, 19]: 100 ± 40 nM
Brain concentration [6, 20]: 0.022±0.005 pmole/mg tissue
Reduction of motor deficits (beam-walking foot faults) vs vehicle ([7]; day 7 after TBI): more than 50%
Motor function recovery (beam-walking) ([7]; day 14 after TBI): almost-complete recovery
Surviving neurons with dendrites, contralateral cortex [8]: 7.53±0.59%
Surviving neurons with dendrites, lesioned cortex [8]: 2.86±0.63%
AUC 0–last, brain [9]: 86.1 pmol·min/mg
AUC 0–last, plasma [9]: 130 µM·min
AUC 0–∞, brain [9]: 87.8 pmol·min/mg
AUC 0–∞, plasma [9]: 134 µM·min
t ½β (elimination half-life), brain [9]: 53 min
t ½β (elimination half-life), plasma [9]: 25 min
Brain AUC 0–∞ ([10]; following a single dose of SB-3CT): 122 pmol·min/mg
Elimination half-life ([10]; mouse, in vivo): 46 min

O=S(=O)(CC1CS1)c1ccc(Oc2ccc(O)cc2)cc1 (stereo not shown) [p-OH SB-3CT]
Conc, whole brain [4]: 0.14±0.04 pmole/mg tissue
Conc, brain stem [4, 12]: 0.13±0.03 pmole/mg tissue
Conc, cerebellum [4, 12]: 0.13±0.03 pmole/mg tissue
Conc, cortex [4, 12]: 0.16±0.05 pmole/mg tissue
Conc, hippocampus [4, 12]: 0.11±0.03 pmole/mg tissue
Conc, plasma [4, 12]: 120 ± 30 nM
Conc, striatum [4, 12]: 0.12±0.04 pmole/mg tissue
Ratio of concentration, brain stem to plasma [4, 12]: 1.1±0.4
Ratio of concentration, cerebellum to plasma [4, 12]: 1.1±0.4
Ratio of concentration, cortex to plasma [4, 12]: 1.3±0.5
Ratio of concentration, hippocampus to plasma [4, 12]: 0.92±0.34
Ratio of concentration, striatum to plasma [4, 12]: 1.0±0.4
Ratio of concentration, whole brain to plasma [4, 12]: 1.2±0.4
Ki [11]: 160 nM
AUC 0–last, brain ([6]; repeated 25 mg/kg i.p. SB-3CT): 2.98 pmol·min/mg
AUC 0–last, plasma ([6]; repeated 25 mg/kg i.p. SB-3CT): 1.45 µM·min
AUC 0–∞, brain ([6]; repeated 25 mg/kg i.p. SB-3CT): 4.61 pmol·min/mg
t ½α, brain ([6]; repeated 25 mg/kg i.p. SB-3CT): 4.2 min
t ½α, plasma ([6]; repeated 25 mg/kg i.p. SB-3CT): 3.4 min
t ½β (elimination half-life), brain ([6]; repeated 25 mg/kg i.p. SB-3CT): 187 min
Brain concentration [6, 13]: 0.14±0.04 pmole/mg tissue
Plasma concentration [6, 14]: 120 ± 30 nM
Brain concentration [6, 15]: 0.026±0.005 pmole/mg tissue
Plasma concentration [6, 15]: 16 ± 4 nM
Brain concentration [6, 16]: 0.015±0.004 pmole/mg tissue
Plasma concentration [6, 16]: 6 ± 1 nM
Brain concentration [6, 17]: 0.011±0.007 pmole/mg tissue
Brain concentration [6, 18]: 0.0081±0.0022 pmole/mg tissue
Brain concentration [6, 19]: 0.0076±0.0009 pmole/mg tissue
Brain concentration [6, 20]: 0.0060±0.0004 pmole/mg tissue
Brain AUC /Plasma AUC ([6]; ratio of AUC 0–last, repeated 25 mg/kg i.p. SB-3CT): 2.1
